These results are taken from patent publication US20080249042A1, “All-Trans-Retinol: All-Trans-13,14-Dihydroretinol Saturase and Methods of Its Use” (UNIVERSITY OF WASHINGTON, priority 2004, published 2008).

The target in one data set is T1, RALDH3 (Mus musculus, UniProt Q9JHW9).
T1 construct: expressed in transfected cells; host or cells: GnTI-negative HEK-293S, transient; cell homogenate
T1 sequence (Q9JHW9 1-512): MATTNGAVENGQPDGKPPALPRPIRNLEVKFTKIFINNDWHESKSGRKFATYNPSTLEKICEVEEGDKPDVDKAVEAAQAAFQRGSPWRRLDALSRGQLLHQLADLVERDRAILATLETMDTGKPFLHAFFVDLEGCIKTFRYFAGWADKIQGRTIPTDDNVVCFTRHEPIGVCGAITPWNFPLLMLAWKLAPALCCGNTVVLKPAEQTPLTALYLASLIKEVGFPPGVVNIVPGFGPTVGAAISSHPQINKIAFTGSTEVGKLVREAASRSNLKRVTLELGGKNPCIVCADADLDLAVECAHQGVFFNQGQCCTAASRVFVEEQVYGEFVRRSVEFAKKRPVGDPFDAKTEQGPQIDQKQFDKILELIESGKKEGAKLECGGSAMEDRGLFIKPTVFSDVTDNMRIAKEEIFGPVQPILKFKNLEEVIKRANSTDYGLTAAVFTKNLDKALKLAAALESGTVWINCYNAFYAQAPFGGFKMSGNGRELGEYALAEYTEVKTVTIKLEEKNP
In words: RALDH oxidation assay, transfected HEK-293S homogenate. The following applies: cell homogenate with NAD, NADP, ATP. Type of data set: biochemical. The procedure:
(§1) RALDH Oxidation Assay. N-Acetylglucosaminyltransferase I-negative HEK-293S cells, obtained from Dr. G. Khorana (Massachusetts Institute of Technology, Boston) were cultured in Dulbecco's modified Eagle's medium, 10% fetal calf serum and maintained at 37° C., 5% CO2, and 100% humidity. Reeves, et al. Proc. Natl. Acad. Sci. U.S.A. 99:13419-13424, 2002. For RALDH enzyme assays, cells were transiently transfected with RALDH1, -2, -3, or -4 expression constructs using Lipofectamine 2000 (Invitrogen) according to the manufacturer's protocol. After 48 h post-transfection, the cells were collected by scraping and were centrifuged. The cell pellet was washed in 137 mM NaCl, 2.7 mM KCl, and 10 mM phosphate (pH 7.4), resuspended in 50 mM Tris (pH 8.0) containing 250 mM sucrose, and homogenized with the aid of a Dounce homogenizer. Cofactors were added to a final concentration of 5 mM NAD, 5 mM NADP, and 1 mM ATP. An aliquot of the cell lysate was boiled for 10 min at 95° C. to provide the control for the nonenzymatic reaction. Substrates in the form of all-trans-RAL or a mixture of isomers of DRAL were added to the cell lysates at a final concentration of 60 μM. The reactions were allowed to proceed for 2 h at 37° C. with shaking and were stopped by the addition of 2 volumes of CH3CN. […] After each run, the column was washed with mixture B (60% tert-butylmethyl ether, 40% methanol) for 10 min at 1.6 ml/min, followed by re-equilibration in phase A. The elution of RA and DRA isomers was monitored at 340 and 290 nm, respectively. The peaks were identified based on their spectra and coelution with standards. The cell lysate was examined for expression of RALDH1-4 by SDS-PAGE and immunoblotting of the V5 epitope-tagged recombinant protein using an anti-V5 epitope monoclonal antibody (Invitrogen).

The target in the next data set is T2, RALDH2 (Mus musculus, UniProt Q62148).
T2 construct: The full-length cDNA of RALDH2 (MGC:76772, IMAGE: 30471325), RALDH4 (MGC:46977, IMAGE:4223059), and CYP26A1 (MGC:13860, IMAGE:4210893) mRNA was obtained; expressed in transfected cells; host or cells: GnTI-negative HEK-293S, transient; cell homogenate
T2 sequence (Q62148 1-518): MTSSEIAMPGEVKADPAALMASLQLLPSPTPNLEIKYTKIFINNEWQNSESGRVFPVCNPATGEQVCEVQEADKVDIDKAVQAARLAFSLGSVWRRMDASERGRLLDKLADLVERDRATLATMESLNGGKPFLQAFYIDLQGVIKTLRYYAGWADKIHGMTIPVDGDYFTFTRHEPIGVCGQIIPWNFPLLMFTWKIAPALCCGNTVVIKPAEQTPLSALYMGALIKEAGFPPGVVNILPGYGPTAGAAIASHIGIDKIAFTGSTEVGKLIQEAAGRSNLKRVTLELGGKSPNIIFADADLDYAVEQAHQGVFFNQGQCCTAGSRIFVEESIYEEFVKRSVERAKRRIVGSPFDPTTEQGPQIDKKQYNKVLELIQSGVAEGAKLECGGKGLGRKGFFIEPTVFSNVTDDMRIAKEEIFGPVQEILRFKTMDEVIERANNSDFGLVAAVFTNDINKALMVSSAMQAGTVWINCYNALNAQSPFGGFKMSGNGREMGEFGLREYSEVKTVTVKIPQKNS
Described as above. Type of data set: biochemical. The following applies: cell homogenate with NAD, NADP, ATP. The protocol: as §1

For a further data set, the target named is T3, RALDH1 (Mus musculus, UniProt P24549).
T3 construct: expressed in transfected cells; host or cells: GnTI-negative HEK-293S, transient; cell homogenate
T3 sequence (P24549 1-501): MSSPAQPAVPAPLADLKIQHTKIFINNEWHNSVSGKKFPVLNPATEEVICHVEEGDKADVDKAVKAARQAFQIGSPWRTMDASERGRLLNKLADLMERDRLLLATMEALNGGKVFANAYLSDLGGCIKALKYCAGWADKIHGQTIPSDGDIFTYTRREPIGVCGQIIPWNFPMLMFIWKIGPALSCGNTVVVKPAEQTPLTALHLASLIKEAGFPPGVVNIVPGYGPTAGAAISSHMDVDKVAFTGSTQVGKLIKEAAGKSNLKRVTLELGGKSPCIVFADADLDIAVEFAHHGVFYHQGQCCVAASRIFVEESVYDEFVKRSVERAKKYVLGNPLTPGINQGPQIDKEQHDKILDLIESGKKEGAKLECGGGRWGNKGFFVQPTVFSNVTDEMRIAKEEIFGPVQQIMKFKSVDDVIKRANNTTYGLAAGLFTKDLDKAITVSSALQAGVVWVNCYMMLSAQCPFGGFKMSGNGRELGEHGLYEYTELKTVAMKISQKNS
The description is as above. The conditions noted are these: cell homogenate with NAD, NADP, ATP. The data set is classed as biochemical. The procedure: as §1

The target of the next data set is T4, RALDH4 (Mus musculus, UniProt Q8BH00).
T4 construct: The full-length cDNA of RALDH2 (MGC:76772, IMAGE: 30471325), RALDH4 (MGC:46977, IMAGE:4223059), and CYP26A1 (MGC:13860, IMAGE:4210893) mRNA was obtained; expressed in transfected cells; host or cells: GnTI-negative HEK-293S, transient; cell homogenate
T4 sequence (Q8BH00 1-487): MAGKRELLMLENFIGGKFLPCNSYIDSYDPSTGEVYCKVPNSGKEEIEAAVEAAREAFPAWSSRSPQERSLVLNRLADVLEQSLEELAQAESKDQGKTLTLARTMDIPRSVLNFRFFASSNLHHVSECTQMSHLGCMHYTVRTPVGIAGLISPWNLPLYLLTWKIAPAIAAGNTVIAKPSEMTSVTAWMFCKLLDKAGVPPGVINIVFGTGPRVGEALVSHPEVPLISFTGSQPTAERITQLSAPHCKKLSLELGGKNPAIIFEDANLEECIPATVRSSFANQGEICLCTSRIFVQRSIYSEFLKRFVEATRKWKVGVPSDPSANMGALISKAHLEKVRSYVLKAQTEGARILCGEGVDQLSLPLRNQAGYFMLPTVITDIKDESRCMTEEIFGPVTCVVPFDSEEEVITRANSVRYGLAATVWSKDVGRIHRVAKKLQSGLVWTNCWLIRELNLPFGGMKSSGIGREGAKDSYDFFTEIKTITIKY
Described as above. The data set is classed as biochemical. The following applies: cell homogenate with NAD, NADP, ATP. The protocol: as §1

In the next data set the target is T5, mouse RALDH1 (Mus musculus, UniProt P24549).
T5 sequence (P24549 1-501): T3 sequence (P24549 1-501)
The following applies: cited from earlier work.

Another data set deals with T6, mouse RALDH2 (Mus musculus, UniProt Q62148).
T6 sequence (Q62148 1-518): T2 sequence (Q62148 1-518)
The conditions noted are these: cited from earlier work.

`CC(C=CC1=C(C)CCCC1(C)C)=CC=CC(C)CC=O` (stereo not drawn) [all-trans-DRAL, 13,14-dihydroretinaldehyde]: the “Oxidation to the acid by RALDH3” value at RALDH3 is “efficiently converted”. For the same compound, the “Oxidation to the acid by RALDH2” value at RALDH2 is recorded as “efficiently converted”. The “Oxidation to the acid by RALDH1” value on RALDH1 is listed as “less efficient”. Further, at RALDH4, the “Oxidation to the acid by RALDH4” value is recorded as “less efficient”.
For `CC1=C(/C=C/C(C)=C/C=C/C(C)=C/C=O)C(C)(C)CCC1` [all-trans-RAL, all-trans-retinal, reference compound], the “Oxidation to the acid by RALDH3” value on RALDH3 was “efficiently converted”. Moreover, at RALDH2, the “Oxidation to the acid by RALDH2” value is “efficiently converted”. Moreover, the “Oxidation to the acid by RALDH1” value on RALDH1 is reported as “less efficient”. For the same compound, the “Oxidation to the acid by RALDH4” value on RALDH4 was “less efficient”. Moreover, the Km was 11.6 µM on mouse RALDH1 and 0.66 µM on mouse RALDH2.

As usually defined, the Km is the concentration of substrate that gives half-maximal velocity.
